How the values were obtained:
[1] = biological target: Interleukin-1 receptor type 1 (Homo sapiens) (UniProt P14778); assay: Interleukin IL-1 R1 Eurofins-Panlabs radioligand binding assay; parameters: ligand concentration 0.1 nM; conditions: Compound concentration 10.0 uM
[2] = biological target: Microtubule-associated serine/threonine-protein kinase 1 (Homo sapiens, UniProt Q9Y2H9); assay: MAST1(MAS1LGE5) Takeda global kinase panel
Insulin receptor = Insulin receptor (Homo sapiens, UniProt P06213); assay: InSR(INSRLGY1) Takeda global kinase panel
[3] = biological target: Serine/threonine-protein kinase tousled-like 1 (Homo sapiens, UniProt Q9UKI8); assay: TLK1(TLK1LGP1) Takeda global kinase panel
[4] = biological target: Tyrosine-protein kinase receptor UFO (Homo sapiens, UniProt P30530); assay: Axl(AXL1LGY1) Takeda global kinase panel
[5] = biological target: Tyrosine-protein kinase Srms (Homo sapiens, UniProt Q9H3Y6); assay: Srm(SRMSLGY1) Takeda global kinase panel
[6] = biological target: Cyclin-dependent kinase 14 (Homo sapiens, UniProt O94921); assay: PFTAIRE1(CD14CGS1) Takeda global kinase panel
[7] = biological target: Serine/threonine-protein kinase SBK1 (Homo sapiens, UniProt Q52WX2); assay: SBK(SBK1LGY1) Takeda global kinase panel
[8] = biological target: Tyrosine-protein kinase TXK (Homo sapiens, UniProt P42681); assay: TXK(TXK1CGD5) Takeda global kinase panel
[9] = biological target: Maternal embryonic leucine zipper kinase (Homo sapiens, UniProt Q14680); assay: MELK(MELKLGF1) Takeda global kinase panel
[10] = biological target: Serine/threonine-protein kinase/endoribonuclease IRE1 (Homo sapiens, UniProt O75460); assay: IRE1(ERN1PHY1) Takeda global kinase panel
[11] = biological target: Mitogen-activated protein kinase kinase kinase 12 (Homo sapiens, UniProt Q12852); assay: DLK(M312CGY1) Takeda global kinase panel
[12] = biological target: D(1B) dopamine receptor (Homo sapiens) (UniProt P21918); assay: Dopamine D5 Eurofins-Panlabs radioligand binding assay; conditions: Compound concentration 10.0 uM
[13] = biological target: Serine/threonine-protein kinase PAK 6 (Homo sapiens, UniProt Q9NQU5); assay: PAK6(PAK6CGY1) Takeda global kinase panel
[14] = biological target: Endothelin receptor type B (Homo sapiens) (UniProt P24530); conditions: Compound concentration 10.0 uM
[15] = biological target: B1 bradykinin receptor (Homo sapiens) (UniProt P46663); conditions: Compound concentration 10.0 uM
[16] = biological target: Tyrosine-protein kinase ITK/TSK (Homo sapiens, UniProt Q08881); assay: ITK(ITK1CGF1) Takeda global kinase panel
[17] = biological target: Kappa-type opioid receptor (Homo sapiens) (UniProt P41145); conditions: Compound concentration 10.0 uM
[18] = biological target: Serine/threonine-protein kinase Nek3 (Homo sapiens, UniProt P51956); assay: Nek3(NEK3LGRI) Takeda global kinase panel
SRSF protein kinase 1 = SRSF protein kinase 1 (Homo sapiens, UniProt Q96SB4); assay: SRPK1(SRP1IHRL) Takeda global kinase panel
[19] = biological target: Mitogen-activated protein kinase 12 (Homo sapiens, UniProt P53778); assay: p38gamma(MP12LGP1) Takeda global kinase panel
[20] = biological target: Serine/threonine-protein kinase SIK2 (Homo sapiens, UniProt Q9H0K1); assay: QIK(SIK2LGY1) Takeda global kinase panel
Myosin-IIIb = Myosin-IIIb (Homo sapiens, UniProt Q8WXR4); assay: MYO3B(MY3BLGA1) Takeda global kinase panel
[21] = biological target: Mitogen-activated protein kinase kinase kinase 20 (Homo sapiens, UniProt Q9NYL2); assay: ZAK(ZAK1LGY1) Takeda global kinase panel
[22] = biological target: Protein kinase C delta type (Homo sapiens, UniProt Q05655); assay: PKCdelta(PRKDPFP1) Takeda global kinase panel
[23] = biological target: Cell division cycle 7-related protein kinase (Homo sapiens, UniProt O00311); assay: CDC7(CDC7CGP1) Takeda global kinase panel
[24] = biological target: Calcium/calmodulin-dependent protein kinase type 1G (Homo sapiens, UniProt Q96NX5); assay: CaMK1gamma(CA1GLGN1) Takeda global kinase panel
[25] = biological target: Myosin light chain kinase 2, skeletal/cardiac muscle (Homo sapiens, UniProt Q9H1R3); assay: skMLCK(MYL2LHY1) Takeda global kinase panel
[26] = biological target: Tyrosine-protein kinase SYK (Homo sapiens, UniProt P43405); assay: Syk(SYK1LHY1) Takeda global kinase panel
[27] = biological target: Serine/threonine-protein kinase D1 (Homo sapiens, UniProt Q15139); assay: PKD1(PRD1LHY1) Takeda global kinase panel
[28] = biological target: Receptor-interacting serine/threonine-protein kinase 3 (Homo sapiens, UniProt Q9Y572); assay: RIPK3(RIP3IGRI) Takeda global kinase panel
[29] = biological target: Cyclin-G-associated kinase (Homo sapiens, UniProt O14976); assay: GAK(GAK1PGF1) Takeda global kinase panel
[30] = biological target: Substance-P receptor (Homo sapiens) (UniProt P25103); assay: Inhibition of Tachykinin NK1 at 10 µM in the Eurofins-Panlabs radioligand binding assay (Eurofins_assay_255520); parameters: ligand concentration 0.8 nM; conditions: Compound concentration 10.0 uM
Homo sapiens = species on record: Homo sapiens; conditions: Compound concentration 10.0 uM
Ephrin type-A receptor 5 = Ephrin type-A receptor 5 (Homo sapiens, UniProt P54756); assay: EphA5(EPA5MGF1) Takeda global kinase panel
[31] = biological target: Ribosomal protein S6 kinase alpha-2 (Homo sapiens, UniProt Q15349); assay: RSK3(R6A1CGE1) Takeda global kinase panel
Wee1-like protein kinase = Wee1-like protein kinase (Homo sapiens, UniProt P30291); assay: Wee1(WEE1LGF1) Takeda global kinase panel
[32] = biological target: T1, Muscarinic acetylcholine receptor M1 (Homo sapiens) (UniProt P11229); conditions: Compound concentration 10.0 uM
T1 sequence (whole entry): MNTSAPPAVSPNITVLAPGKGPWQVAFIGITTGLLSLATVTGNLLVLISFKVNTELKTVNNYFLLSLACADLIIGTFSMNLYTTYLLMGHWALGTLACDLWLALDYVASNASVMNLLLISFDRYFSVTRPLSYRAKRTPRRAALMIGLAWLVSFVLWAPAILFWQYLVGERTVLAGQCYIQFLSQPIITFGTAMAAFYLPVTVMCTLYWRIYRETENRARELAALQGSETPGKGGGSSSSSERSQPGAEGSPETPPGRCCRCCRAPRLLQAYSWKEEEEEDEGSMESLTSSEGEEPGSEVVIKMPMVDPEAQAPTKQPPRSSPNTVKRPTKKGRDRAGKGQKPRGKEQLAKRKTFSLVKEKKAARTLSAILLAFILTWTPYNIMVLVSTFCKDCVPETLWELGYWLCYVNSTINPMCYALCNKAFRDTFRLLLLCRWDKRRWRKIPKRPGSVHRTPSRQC

[33] = biological target: Phosphorylase b kinase gamma catalytic chain, skeletal muscle/heart isoform (Homo sapiens, UniProt Q16816); assay: PhKgamma1(PHG1LHY1) Takeda global kinase panel
[34] = biological target: Myosin light chain kinase (Homo sapiens, UniProt Q32MK0); assay: caMLCK(MYL3LGF1) Takeda global kinase panel

Chain of Calcium/calmodulin-dependent protein kinase type 1G (Q96NX5 whole entry): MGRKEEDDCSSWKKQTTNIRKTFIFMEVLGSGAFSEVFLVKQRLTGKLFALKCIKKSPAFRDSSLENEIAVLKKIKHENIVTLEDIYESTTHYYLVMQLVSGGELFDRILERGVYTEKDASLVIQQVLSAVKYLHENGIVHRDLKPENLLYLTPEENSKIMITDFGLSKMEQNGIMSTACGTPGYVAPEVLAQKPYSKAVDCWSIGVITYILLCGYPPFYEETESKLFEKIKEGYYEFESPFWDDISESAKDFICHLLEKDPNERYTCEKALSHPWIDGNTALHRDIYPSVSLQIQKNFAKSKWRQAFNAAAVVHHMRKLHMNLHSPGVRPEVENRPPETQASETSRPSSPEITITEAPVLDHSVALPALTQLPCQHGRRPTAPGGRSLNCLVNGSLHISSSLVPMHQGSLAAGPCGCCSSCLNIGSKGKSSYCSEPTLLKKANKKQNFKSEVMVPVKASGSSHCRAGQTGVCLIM
Chain of Cyclin-G-associated kinase (O14976 whole entry): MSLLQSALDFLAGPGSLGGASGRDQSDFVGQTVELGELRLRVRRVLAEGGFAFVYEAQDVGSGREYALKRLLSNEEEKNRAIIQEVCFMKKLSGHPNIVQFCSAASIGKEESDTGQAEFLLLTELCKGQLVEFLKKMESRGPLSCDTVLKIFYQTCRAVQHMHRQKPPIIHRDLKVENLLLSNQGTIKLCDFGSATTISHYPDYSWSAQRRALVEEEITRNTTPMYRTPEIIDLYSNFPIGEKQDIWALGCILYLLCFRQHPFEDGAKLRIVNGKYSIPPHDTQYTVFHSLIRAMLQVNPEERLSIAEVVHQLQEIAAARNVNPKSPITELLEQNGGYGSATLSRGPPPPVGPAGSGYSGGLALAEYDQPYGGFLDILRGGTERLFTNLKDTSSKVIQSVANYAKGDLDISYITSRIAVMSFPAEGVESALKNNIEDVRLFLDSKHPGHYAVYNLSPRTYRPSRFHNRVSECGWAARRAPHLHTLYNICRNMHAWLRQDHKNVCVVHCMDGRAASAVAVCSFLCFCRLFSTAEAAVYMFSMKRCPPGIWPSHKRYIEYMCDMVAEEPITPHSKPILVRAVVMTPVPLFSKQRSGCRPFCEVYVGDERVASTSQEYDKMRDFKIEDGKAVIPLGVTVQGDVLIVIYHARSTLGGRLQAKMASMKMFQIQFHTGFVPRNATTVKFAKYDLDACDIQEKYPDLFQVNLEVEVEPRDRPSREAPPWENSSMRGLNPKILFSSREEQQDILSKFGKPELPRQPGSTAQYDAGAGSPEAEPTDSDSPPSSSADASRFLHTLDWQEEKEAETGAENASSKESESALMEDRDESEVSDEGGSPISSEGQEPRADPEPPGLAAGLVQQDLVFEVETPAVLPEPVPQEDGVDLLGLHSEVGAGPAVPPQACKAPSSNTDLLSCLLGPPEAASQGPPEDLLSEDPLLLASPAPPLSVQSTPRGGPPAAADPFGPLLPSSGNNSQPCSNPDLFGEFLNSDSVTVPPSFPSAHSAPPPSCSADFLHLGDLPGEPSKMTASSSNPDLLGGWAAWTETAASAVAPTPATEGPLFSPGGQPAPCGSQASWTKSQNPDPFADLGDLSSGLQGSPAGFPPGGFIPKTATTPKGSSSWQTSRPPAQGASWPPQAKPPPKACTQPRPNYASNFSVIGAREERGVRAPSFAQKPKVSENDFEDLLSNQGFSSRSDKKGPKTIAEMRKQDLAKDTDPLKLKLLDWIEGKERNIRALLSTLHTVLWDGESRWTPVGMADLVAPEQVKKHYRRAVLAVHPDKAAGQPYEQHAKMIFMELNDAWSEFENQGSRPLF
Chain of Mitogen-activated protein kinase kinase kinase 20 (Q9NYL2 whole entry): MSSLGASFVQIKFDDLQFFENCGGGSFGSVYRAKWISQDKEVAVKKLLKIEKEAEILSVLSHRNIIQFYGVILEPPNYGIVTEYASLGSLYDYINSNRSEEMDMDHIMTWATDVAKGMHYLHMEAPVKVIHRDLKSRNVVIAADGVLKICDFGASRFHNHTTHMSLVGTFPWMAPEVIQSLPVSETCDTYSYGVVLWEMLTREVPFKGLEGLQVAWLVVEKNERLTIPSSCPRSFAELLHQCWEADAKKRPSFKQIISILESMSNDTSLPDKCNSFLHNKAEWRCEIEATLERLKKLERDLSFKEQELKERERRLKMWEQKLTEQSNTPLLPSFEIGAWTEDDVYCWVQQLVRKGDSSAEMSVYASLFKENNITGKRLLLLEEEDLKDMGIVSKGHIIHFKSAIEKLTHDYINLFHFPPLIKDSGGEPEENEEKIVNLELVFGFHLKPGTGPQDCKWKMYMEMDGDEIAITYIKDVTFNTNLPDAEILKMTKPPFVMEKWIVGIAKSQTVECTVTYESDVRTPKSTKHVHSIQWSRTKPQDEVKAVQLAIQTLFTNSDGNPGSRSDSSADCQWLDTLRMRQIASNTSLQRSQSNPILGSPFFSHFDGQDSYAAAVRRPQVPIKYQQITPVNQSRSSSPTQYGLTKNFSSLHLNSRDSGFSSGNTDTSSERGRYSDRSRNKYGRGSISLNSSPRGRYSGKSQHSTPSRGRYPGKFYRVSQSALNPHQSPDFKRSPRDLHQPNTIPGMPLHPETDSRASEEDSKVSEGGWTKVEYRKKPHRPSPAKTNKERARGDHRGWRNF
Chain of Serine/threonine-protein kinase tousled-like 1 (Q9UKI8 whole entry): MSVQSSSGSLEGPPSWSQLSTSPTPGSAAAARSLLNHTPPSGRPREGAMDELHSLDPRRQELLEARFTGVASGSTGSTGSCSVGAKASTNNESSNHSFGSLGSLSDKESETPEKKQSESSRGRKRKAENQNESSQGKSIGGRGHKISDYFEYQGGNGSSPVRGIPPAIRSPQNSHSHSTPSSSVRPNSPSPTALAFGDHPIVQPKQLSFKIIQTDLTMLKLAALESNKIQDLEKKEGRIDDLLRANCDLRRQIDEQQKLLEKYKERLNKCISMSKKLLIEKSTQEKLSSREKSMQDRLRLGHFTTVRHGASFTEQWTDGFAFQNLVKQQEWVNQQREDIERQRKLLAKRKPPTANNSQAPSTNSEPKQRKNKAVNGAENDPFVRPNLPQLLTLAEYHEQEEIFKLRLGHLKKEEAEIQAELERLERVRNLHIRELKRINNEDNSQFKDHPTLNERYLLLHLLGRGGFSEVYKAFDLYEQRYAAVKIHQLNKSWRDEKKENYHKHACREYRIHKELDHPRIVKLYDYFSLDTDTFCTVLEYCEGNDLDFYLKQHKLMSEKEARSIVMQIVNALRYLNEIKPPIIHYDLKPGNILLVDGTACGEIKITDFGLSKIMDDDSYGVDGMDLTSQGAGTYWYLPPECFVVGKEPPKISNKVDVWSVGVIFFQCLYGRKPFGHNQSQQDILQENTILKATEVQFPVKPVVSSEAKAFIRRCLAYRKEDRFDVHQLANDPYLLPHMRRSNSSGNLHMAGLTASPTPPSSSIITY
Chain of B1 bradykinin receptor (Homo sapiens) (P46663 whole entry): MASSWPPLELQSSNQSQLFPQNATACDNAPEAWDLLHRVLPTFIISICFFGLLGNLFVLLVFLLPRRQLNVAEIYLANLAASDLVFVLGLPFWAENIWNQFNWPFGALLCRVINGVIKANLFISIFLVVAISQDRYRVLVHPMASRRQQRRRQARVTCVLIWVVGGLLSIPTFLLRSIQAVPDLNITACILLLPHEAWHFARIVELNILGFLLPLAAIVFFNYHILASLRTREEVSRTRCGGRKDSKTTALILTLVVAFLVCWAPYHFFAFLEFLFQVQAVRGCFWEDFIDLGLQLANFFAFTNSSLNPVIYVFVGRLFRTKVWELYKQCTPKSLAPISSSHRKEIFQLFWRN
Chain of Myosin-IIIb (Q8WXR4 whole entry): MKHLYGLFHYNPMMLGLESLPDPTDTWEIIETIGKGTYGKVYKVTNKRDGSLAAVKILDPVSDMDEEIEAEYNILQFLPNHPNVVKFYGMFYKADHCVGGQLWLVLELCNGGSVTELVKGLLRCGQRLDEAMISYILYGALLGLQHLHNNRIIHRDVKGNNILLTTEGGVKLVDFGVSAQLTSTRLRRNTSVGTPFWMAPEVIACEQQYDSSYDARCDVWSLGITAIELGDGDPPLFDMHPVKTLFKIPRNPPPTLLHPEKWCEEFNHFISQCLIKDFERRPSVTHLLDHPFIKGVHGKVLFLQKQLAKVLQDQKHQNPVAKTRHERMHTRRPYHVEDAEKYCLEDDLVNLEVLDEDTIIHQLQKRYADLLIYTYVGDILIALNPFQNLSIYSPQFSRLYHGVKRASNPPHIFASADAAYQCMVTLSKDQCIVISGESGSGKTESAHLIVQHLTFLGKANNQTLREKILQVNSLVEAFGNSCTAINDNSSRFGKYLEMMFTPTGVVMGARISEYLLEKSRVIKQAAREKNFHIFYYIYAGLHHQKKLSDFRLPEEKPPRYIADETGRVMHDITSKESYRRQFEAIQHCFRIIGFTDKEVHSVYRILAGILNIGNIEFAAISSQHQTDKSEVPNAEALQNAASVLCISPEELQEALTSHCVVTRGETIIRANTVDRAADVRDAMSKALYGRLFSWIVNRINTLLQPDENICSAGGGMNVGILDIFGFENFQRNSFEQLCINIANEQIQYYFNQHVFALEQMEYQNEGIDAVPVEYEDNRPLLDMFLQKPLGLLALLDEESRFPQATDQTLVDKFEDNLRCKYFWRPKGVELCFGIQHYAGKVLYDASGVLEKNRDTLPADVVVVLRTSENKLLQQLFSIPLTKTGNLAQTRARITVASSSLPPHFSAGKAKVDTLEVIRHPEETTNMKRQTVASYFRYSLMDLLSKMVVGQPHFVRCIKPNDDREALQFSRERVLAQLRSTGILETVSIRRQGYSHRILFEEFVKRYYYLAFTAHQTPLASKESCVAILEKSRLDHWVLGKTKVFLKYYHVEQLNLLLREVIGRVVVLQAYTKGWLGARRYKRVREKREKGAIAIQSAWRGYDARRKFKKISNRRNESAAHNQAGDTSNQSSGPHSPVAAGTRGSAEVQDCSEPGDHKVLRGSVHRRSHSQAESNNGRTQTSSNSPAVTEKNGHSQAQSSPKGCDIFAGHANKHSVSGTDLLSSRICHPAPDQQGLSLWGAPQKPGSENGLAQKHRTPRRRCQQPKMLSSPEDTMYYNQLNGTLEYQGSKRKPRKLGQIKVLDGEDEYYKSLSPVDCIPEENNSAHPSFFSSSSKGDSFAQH

SMILES | inhibition [1] [%] | IC50 [2] [µM] | IC50 (Insulin receptor) [µM] | IC50 [3] [µM] | IC50 [4] [µM] | IC50 [5] [µM] | IC50 [6] [µM] | IC50 [7] [µM] | IC50 [8] [µM] | IC50 [9] [µM] | IC50 [10] [µM] | IC50 [11] [µM] | inhibition [12] [%] | IC50 [13] [µM] | inhibition [14] [%] | inhibition [15] [%] | IC50 [16] [µM] | inhibition [17] [%] | IC50 [18] [µM] | IC50 (SRSF protein kinase 1) [µM] | also measured
CN1C(=O)[C@@H](N2CCc3cn(Cc4ccccc4)nc3C2=O)COc2ccccc21 [TP-030-1] | -7 | 1 | 1 | 1 | 1 | 1 | 1 | 1 | 1 | 1 | 1 | 1 | 3 | 1 | 0 | 2 | 1 | 3 | 1 | 1 | IC50 [19]: 1 µM; IC50 [20]: 1 µM; IC50 (Myosin-IIIb): 1 µM; IC50 [21]: 1 µM; IC50 [22]: 1 µM; IC50 [23]: 1 µM; IC50 [24]: 1 µM; IC50 [25]: 1 µM; IC50 [26]: 1 µM; IC50 [27]: 1 µM; IC50 [28]: 1 µM; IC50 [29]: 1 µM; inhibition [30]: 29%; inhibition (Homo sapiens): 21%; IC50 (Ephrin type-A receptor 5): 1 µM; IC50 [31]: 1 µM; IC50 (Wee1-like protein kinase): 1 µM; inhibition [32]: 0%; IC50 [33]: 1 µM; IC50 [34]: 1 µM
CN1C(=O)[C@@H](N2CCc3cn(CC4CCS(=O)(=O)CC4)nc3C2=O)COc2ccccc21 [TP-030n] | -9 | 1 | 1 | 1 | 1 | 1 | 1 | 1 | 1 | 1 | 1 | 1 | 3 | 1 | -3 | 9 | 1 | 3 | 1 | 1 | IC50 [19]: 1 µM; IC50 [20]: 1 µM; IC50 (Myosin-IIIb): 1 µM; IC50 [21]: 1 µM; IC50 [22]: 1 µM; IC50 [23]: 1 µM; IC50 [24]: 1 µM; IC50 [25]: 1 µM; IC50 [26]: 1 µM; IC50 [27]: 1 µM; IC50 [28]: 1 µM; IC50 [29]: 1 µM; inhibition [30]: 14%; inhibition (Homo sapiens): 2%; IC50 (Ephrin type-A receptor 5): 1 µM; IC50 [31]: 1 µM; IC50 (Wee1-like protein kinase): 1 µM; inhibition [32]: 2%; IC50 [33]: 1 µM; IC50 [34]: 1 µM

Source: ChEMBL document CHEMBL4507327 (2021)
